According to PMC2653091 (Journal of medicinal chemistry, 2009):
Like-named read-outs stand apart in the source and are kept apart here. Where no end group is shown, it is not given here.

Key:
NPSR = settings: cited from earlier work
mouse NPSR = molecular target: T1, mouse NPSR (Mus musculus, UniProt Q8BZP8); assay: Calcium mobilization in HEK293mNPSR cells, agonist mode; type: cell-based
T1 sequence (Q8BZP8 1-371): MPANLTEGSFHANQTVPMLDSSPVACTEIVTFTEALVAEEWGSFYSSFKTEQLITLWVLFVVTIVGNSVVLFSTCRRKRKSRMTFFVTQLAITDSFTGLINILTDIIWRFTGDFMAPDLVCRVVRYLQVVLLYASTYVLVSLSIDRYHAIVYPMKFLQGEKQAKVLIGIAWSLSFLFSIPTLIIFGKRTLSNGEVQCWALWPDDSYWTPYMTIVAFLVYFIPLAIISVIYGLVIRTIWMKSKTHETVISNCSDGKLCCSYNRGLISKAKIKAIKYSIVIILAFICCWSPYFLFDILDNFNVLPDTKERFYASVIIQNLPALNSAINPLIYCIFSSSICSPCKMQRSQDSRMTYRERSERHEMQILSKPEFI

mouse vertical activity = settings: at doses able to counteract the stimulatory effect of exogenously applied NPS; cited from earlier work

Molecule: [D-Ala^5]NPS
- Pharmacological profile at NPSR (NPSR; ref 15): partial agonist

Molecule: [Ala^5]NPS (SFRNAVGTGMKKTSFQRAKS; Neuropeptide S; UniProt P0C0P6 70-89, looked up, variant G5A)
- Pharmacological profile at NPSR (NPSR; ref 6, 15): high potency NPSR full agonist
- Pharmacological profile at NPSR (NPSR; ref 15): full agonist

Molecule: [Trp^5]NPS (SFRNWVGTGMKKTSFQRAKS; Neuropeptide S; UniProt P0C0P6 70-89, looked up, variant G5W) [Compound 2]
- Agonist effect at 10 μM (crc incomplete) (mouse NPSR; 10 μM, % over the baseline, HEK293mNPSR): 30%

Molecule: O=C(NCc1ccc(F)cc1)N1CCN2C(=O)OC(c3ccccc3)(c3ccccc3)C2C1 (stereo not drawn) [SHA 68, 3-Oxo-1,1-diphenyl-tetrahydro-oxazolo[3,4-a]pyrazine-7-carboxylic acid 4-fluoro-benzylamide]
- Effect per se on mouse vertical activity (mouse vertical activity): selective reduction of mouse vertical activity
- Pharmacological profile at NPSR (NPSR; ref 18): pure antagonist

Molecule: SFRNGVGTGMKKTSFQRAKS [NPS, Neuropeptide S]
- Emax (mouse NPSR; read-out: Agonist Emax ± sem, SEM): 295 ± 22%

Molecule: [Aib^5]NPS
- Pharmacological profile at NPSR (NPSR; ref 15): partial agonists

Molecule: [Ala^3]NPS
- Pharmacological profile at NPSR (NPSR; ref 17): partial agonist
